Test results reported in ChEMBL document CHEMBL1140419, “Synthesis of doxorubicin-peptide conjugate with multidrug resistant tumor cell killing activity” (Bioorg Med Chem Lett, 2005).

Key:
NCI/ADR-RES [1] = assay: Percentage intracellular concentration in MCF7/ADR drug-resistant cell line; type: ADME, cell-based; conditions: human
NCI/ADR-RES [2] = assay: Tumor killing activity in MCF7/ADR drug-resistant cell line with 10 uM verapamil (P-gp inhibitor); type: functional, cell-based; conditions: Homo sapiens
AT3B-1 [3] = assay: Percentage intracellular concentration in AT3B1 drug-resistant cell line; type: ADME, cell-based, Homo sapiens
AT3B-1 [4] = assay: Tumor killing activity in AT3B1 drug-resistant cell line by MTT assay; type: functional, cell-based; conditions: Rattus norvegicus
MCF7 [5] = assay: Cytotoxicity on drug-sensitive MCF7 cells; type: functional, cell-based; conditions: Homo sapiens
AT3B-1 [6] = assay: Inhibition of tumor killing activity in AT3B1 drug-resistant cell line with 10 uM verapamil (P-gp inhibitor); type: functional, cell-based; conditions: Rattus norvegicus
NCI/ADR-RES [7] = assay: Tumor killing activity in MCF7/ADR drug-resistant cell line by MTT assay; type: functional, cell-based; conditions: Homo sapiens
MCF7 [8] = assay: Percentage intracellular concentration in MCF7 breast cancer cells; type: ADME, cell-based; conditions: human
MCF7 [9] = assay: Tumor killing activity in MCF7 breast cancer cells by MTT assay; type: functional, cell-based; conditions: Homo sapiens

Row | permeability (NCI/ADR-RES [1]) [%] | permeability (AT3B-1 [3]) [%] | permeability (MCF7 [8]) [%] | Compound | IC50 (NCI/ADR-RES [2]) [µM] | IC50 (AT3B-1 [4]) [µM] | Activity (MCF7 [5]) | IC50 (AT3B-1 [6]) [µM] | IC50 (NCI/ADR-RES [7]) [µM] | IC50 (MCF7 [9]) [µM]
1 | 58.4 | 49.3 | 84.6 | COc1cccc2c1C(=O)c1c(O)c3c(c(O)c1C2=O)C[C@@](O)(C(=O)CO)C[C@@H]3O[C@H]1C[C@H](NC(=O)C2CCC(CN3C(=O)CC(SC[C@H](N)C(=O)NCC(=O)NCC(=O)NCC(=O)N[C@@H](Cc4ccc(O)cc4)C(=O)NCC(=O)N[C@@H](CCCN=C(N)N)C(=O)N[C@@H](CCCCN)C(=O)N[C@@H](CCCCN)C(=O)N[C@@H](CCCN=C(N)N)C(=O)N[C@@H](CCCN=C(N)N)C(=O)N[C@@H](CCC(N)=O)C(=O)N[C@@H](CCCN=C(N)N)C(=O)N[C@@H](CCCN=C(N)N)C(=O)N[C@@H](CCCN=C(N)N)C(=O)O)C3=O)CC2)[C@H](O)[C@H](C)O1 (some centres not stated) | 5.2 | 23.4 | Dose-dependent effect | 23.8 | 5.8 | 0.28
2 | 4.5 | 7.9 | 92.3 | COc1cccc2c1C(=O)c1c(O)c3c(c(O)c1C2=O)C[C@@](O)(C(=O)CO)C[C@@H]3O[C@H]1C[C@H](N)[C@H](O)[C@H](C)O1 [DOXORUBICIN] | 6.7 | 168 | Dose-dependent effect | 42.4 | 45.2 | –
